# US9801832B2, “Pharmaceutical composition having synergistic action of direct catalase inhibitors and modulators of no metabolism or of extracellular superoxide anion production which lead to catalase destruction” (Universitaetsklinikum Freiburg, priority 2012, dated 2017)
# Assays:
# [1] = system: tumor cells; conditions: cited from earlier work
# [2] = system: Gumbus lymphoma cells; test: Induction of apoptosis in Gumbus lymphoma cells (percentages of apoptotic cells); type: cell-based, human
# Protocol: 12 500 MKN-45 gastric carcinoma cells (A) or 25 000 Gumbus lymphoma cells (B) in 100 μl complete medium each either remained untreated (control) or received 2 mM histidine (singlet oxygen scavenger), 50 mM taurine (HOCl scavenger), or 2.4 mM L-NAME (NOS inhibitor). In Experiment A, additionally 10 mM mannitol (hydroxyl radical scavenger), 150 μM ABH (peroxidase inhibitor), 100 U/ml MnSOD (superoxide anion scavenger) and 25 μM FeTPPS (peroxynitrite decomposer) were used. Subsequently, the given concentrations of salicylic acid were added. After 5 hours (A) and 4 hours, respectively, of incubation at 37° C. the percentages of apoptotic cells were determined in duplicate batches according to the classical apoptosis features nuclear condensation, nuclear fragmentation, and membrane blebbing. Here, at least 200 cells were evaluated pre batch. […] Inhibitors: singlet oxygen scavenger histidine 2 mM; HOCl scavenger taurine 50 mM, NOS inhibitor L-NAME 2.4 mM, peroxidase inhibitor ABH 150 μM.
# [3] = system: MKN-45 gastric carcinoma cells; test: Induction of apoptosis in MKN-45 gastric carcinoma cells (percentages of apoptotic cells); type: cell-based, human; conditions: for induction of apoptosis: 12 500 MKN-45 cells in 100 μl, 4-6.5 hours at 37° C.
# Protocol: 12 500 MKN-45 cells in 100 μl (duplicate batches) were treated with the given concentrations of salicylic acid or remained free from salicylic acid. After 10 minutes the given concentrations of cyanidine were added.
# 12 500 MKN-45 cells in 100 μl (duplicate batches) were treated with 0.1 μg/ml salicylic acid or remained free from salicylic acid (control). […] After 6.5 hours the percentages of apoptotic cells were determined in duplicate batches.
# 12 500 MKN-45 cells in 100 μl (duplicate batches) either received no additive (control), 2 mM of the singlet oxygen scavenger histidine or 25 μM Caspase-8 inhibitor. […] After another 15 minutes cyanidine was added in the given concentrations. After 6.5 hours of incubation at 37° C. the percentages of apoptotic cells were determined.
# 12 500 MKN-45 cells in 100 μl (duplicate batches) either received no additive (control), 2 mM of the singlet oxygen scavenger histidine or 25 μM Caspase-8 inhibitor. […] After 6.5 hours incubation at 37° C. the percentage of apoptotic cells was determined. […]
# 12 500 MKN-45 cells in 100 μl medium were incubated with increasing concentrations of the given active ingredients, in the presence or absence of 0.1 μg/ml salicylic acid for 6 hours and then, the percentages of the apoptotic cells were determined (repeated determination).
# [4] = biological target: T1, tumor cell catalase (Homo sapiens, UniProt P04040); test: Catalase inhibition/inactivation in MKN-45 cells by challenge with exogenous peroxynitrite, NO donor or glucose oxidase; type: cell-based; set-up: endogenous in cells; host or cells: MKN-45 gastric carcinoma cells; conditions: 200 μM peroxynitrite
# T1 sequence (P04040 2-527 limits assumed): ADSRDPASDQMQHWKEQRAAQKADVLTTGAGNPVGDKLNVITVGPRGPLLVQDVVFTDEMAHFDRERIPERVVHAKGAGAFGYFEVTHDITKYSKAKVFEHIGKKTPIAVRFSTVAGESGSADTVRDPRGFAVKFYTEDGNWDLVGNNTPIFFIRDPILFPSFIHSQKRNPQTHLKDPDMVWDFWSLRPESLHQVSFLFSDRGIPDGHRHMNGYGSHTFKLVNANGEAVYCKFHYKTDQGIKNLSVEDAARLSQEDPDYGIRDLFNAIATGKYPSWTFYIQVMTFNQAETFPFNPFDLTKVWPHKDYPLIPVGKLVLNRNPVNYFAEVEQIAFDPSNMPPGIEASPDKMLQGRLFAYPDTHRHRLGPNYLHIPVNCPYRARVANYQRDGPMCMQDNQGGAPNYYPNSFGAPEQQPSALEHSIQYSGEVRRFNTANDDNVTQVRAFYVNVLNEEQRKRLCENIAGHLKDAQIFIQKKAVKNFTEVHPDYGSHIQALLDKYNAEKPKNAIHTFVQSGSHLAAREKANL
# Protocol: Direct catalase inhibition with relevance to the induction of apoptosis in tumor cells can be determined by pre-incubating tumor cells at first in the presence of the singlet oxygen scavenger histidine (2 mM) with the substance to be tested in increasing concentration (between 10 and 30 minutes at 37° C.) and subsequently adding peroxynitrite in the concentration range between 10 and 200 μM. The tumor cells are protected from the apoptosis-triggering effect of peroxynitrite by their membranous catalase. An inhibition of the catalase partially or completely cancels this protection and in the presence of peroxynitrite leads to the induction of apoptosis. The presence of 2 mM histidine ensures that the measured induction of apoptosis is not a singlet oxygen-mediated inactivation of the catalase by destruction of its active center. Alternatively, instead of addition of histidine inhibition of the NADPH oxidase by 100 μM AEBSF may take place. With prevented superoxide anion production also no singlet oxygen formation in the test system is possible.
# 4000 MKN-45 cells per 100 μl in […] were treated with increasing concentrations of monoclonal antibodies against catalase “Anti-KAT” or Anti-EGFR. After 15 minutes either 200 μM peroxynitrite (“PON”), 0.5 mM DEA-NONOate (rapidly decomposing NO donor), or 2 mU/ml glucose oxidase (GOX) that continuously generates hydrogen peroxide were added. After another two hours at 37° C. the percentages of apoptotic cells were determined in duplicate batches.
# The principle of identification is based on the fact that tumor cells (here MKN-45 gastric carcinoma cells) are protected from the apoptosis-triggering effect of exogenously added peroxynitrite by their membranous catalase. Addition of catalase inhibitors sensitizes the cells to the effect of exogenous peroxynitrite.
# The experiment was performed in analogy to that described in FIG. 9 except that instead of Anti-KAT a monoclonal antibody against SOD was used. The cells were tested in two different densities, namely 4000 and 12 500 cells per 100 μl. The challenge to test the activity of catalase was carried out with 200 μM peroxynitrite, or 0.5 mM DEA NONOate or 2 mU/ml GOX.
# Subsequently, 200 μM or no peroxynitrite was added. After 1.5 hours the percentages of apoptotic cells were determined in duplicate batches.
# Subsequently, 200 μM or no peroxynitrite was added. After 1 hour the percentages of apoptotic cells were determined in duplicate batches.
# 12 500 MKN-45 cells in 100 μl medium received 100 μM AEBSF or no additive. After 15 minutes the given concentrations of cyanidine were added and the batches were incubated for 15 minutes at 37° C. Subsequently, 200 μM peroxynitrite (PON) were added or the batches were not treated with peroxynitrite (control). After 1 hour the percentages of apoptotic cells were determined in duplicate batches.
# 12 500 MKN-45 cells received no addition (control), or 2 mM histidine, or 100 μM AEBSF or 2.4 mM L-NAME immediately before the addition of the given concentrations of salicylic acid (“0 min”) or 20 minutes after addition of salicyl. 20 minutes after the addition of salicylic acid 200 μM peroxynitrite (PON) were added to all batches except the control batches. After another 2 hours the percentages of apoptotic cells were determined in duplicates.
# [5] = system: thrombocytes; conditions: cited from earlier work
# [6] = system: tumor cells; conditions: cited from earlier work; remark: listed apart in the source
Structure (SMILES),sensitivity of tumor cells for ROS signaling-mediated apoptosis (autocrine and by interaction with non-transformed cells) [1],"dependence of the induction of apoptosis on singlet oxygen ([2]; 2 mM histidine (singlet oxygen scavenger), Gumbus cells)","ROS signal path of the induced apoptosis (inhibitor profile) ([2]; Gumbus cells, L-NAME, taurine, ABH)","induction of apoptosis ([2]; substance alone, 25 000 Gumbus lymphoma cells in 100 μl, 4 hours at 37° C.)",synergism with cyanidine in the induction of apoptosis [3],synergism with taxol in the induction of apoptosis [3],"induction of apoptosis, substance alone at the concentration of the combination ([3]; 0.15 ng/ml cyanidine alone, 0.08 μg/ml salicylic acid alone, MKN-45 (FIG. 16))","induction of apoptosis, alone at 0.1 μg/ml ([3]; 0.1 μg/ml, MKN-45 (FIG. 18))","ROS signal path of the induced apoptosis (inhibitor profile) ([3]; MKN-45, L-NAME, FeTPPS, taurine, ABH)","concentration up to which almost no effect on apoptosis is shown ([3]; administered alone, MKN-45, 6 hours (FIG. 16))","dependence of the induction of apoptosis on singlet oxygen ([3]; substance alone, 2 mM histidine (singlet oxygen scavenger), MKN-45)",induction of apoptosis ([3]; substance alone),"catalase inactivation, alone at the chosen concentration ([4]; 6.25 ng/ml alone, MKN-45 (FIG. 21))","catalase inhibition / sensitization to peroxynitrite with inhibited superoxide anion synthesis ([4]; 100 μM AEBSF, MKN-45)",inhibition of tumor cell catalase (sensitization to exogenous peroxynitrite) ([4]; MKN-45),"requirement of singlet oxygen, superoxide anions and NO for catalase inhibition/inactivation ([4]; 2 mM histidine, 100 μM AEBSF or 2.4 mM L-NAME, MKN-45 (FIGS. 14, 15))",minor increase of the superoxide anion production ([5]; 6.25 and 12.5 μg/ml),"production of superoxide anions, hydrogen peroxide, and singlet oxygen [5]","synergistic interaction with salicylic acid in the induction of apoptosis ([3]; 0.1 μg/ml salicylic acid, MKN-45, 6 hours (FIGS. 22-25))",superoxide anion production [6]
Nc1nc[nH]n1 [3-aminotriazole],become sensitive for these two processes,,,,,,,,,,,,,,,,,,,
O=C(O)c1ccccc1O [salicylic acid],,does not depend on singlet oxygen,"In the low concentration range of the salicylic acid preferably the NO/peroxynitrite signal path runs, with higher concentrations the HOCl path predominates",induces ROS-dependent induction of apoptosis,Synergism is achieved,Synergism is achieved,remained ineffective,ineffective in itself,"In the low concentration range of the salicylic acid preferably the NO/peroxynitrite signal path runs, with higher concentrations the HOCl path predominates",up to 0.32 μg/ml,does not depend on singlet oxygen,induces ROS-dependent induction of apoptosis,almost no catalase inactivation,independent of the superoxide anion synthesis,inhibits the catalase of the tumor cells,"independent of superoxide anions, NO and singlet oxygen",,,,
Oc1ccc(C=Cc2cc(O)cc(O)c2)cc1 [resveratrol],,,,,,,,,,,,still does not lead to a significant induction of apoptosis,,,,,statistically insignificant,"leads to a reduction of the production of superoxide anions, hydrogen peroxide, and singlet oxygen",synergistically reacts,leads to a dramatic increase of the superoxide anion production
